Data as given in PMC5761474 (Journal of Pharmaceutical Analysis, 2014).

Assay: Pharmacokinetic study of DRV in rats after oral dosing
Format: in vivo, male Wistar rats
[1] = male, Wistar, rat, plasma, po, 50 mg/kg
[2] = oral 50 mg/kg, rats, n=6, mean±SD

AUC(0-inf) [1]: 1060 ± 49 ng·h/mL
AUC(0-t) [1]: 1010 ± 48 ng·h/mL
Cmax [1]: 130 ± 4 ng/mL
MRT inf [1]: 7.89 ± 0.83 h
Tmax [1]: 3 ± 0.28 h
AUMC0−t [2]: 6518±386 ng h^2/mL
AUMC0−∞ [2]: 8408±914 ng h^2/mL
Compound: CC(C)CN(C[C@@H](O)[C@H](Cc1ccccc1)NC(=O)O[C@H]1CO[C@H]2OCC[C@H]21)S(=O)(=O)c1ccc(N)cc1 [DRV, darunavir]
